What all share (conditions): PC-3
Experiment [1] addresses T1, MAP/microtubule affinity-regulating kinase 4 (Homo sapiens) (UniProt Q96L34).
T1 sequence (whole entry): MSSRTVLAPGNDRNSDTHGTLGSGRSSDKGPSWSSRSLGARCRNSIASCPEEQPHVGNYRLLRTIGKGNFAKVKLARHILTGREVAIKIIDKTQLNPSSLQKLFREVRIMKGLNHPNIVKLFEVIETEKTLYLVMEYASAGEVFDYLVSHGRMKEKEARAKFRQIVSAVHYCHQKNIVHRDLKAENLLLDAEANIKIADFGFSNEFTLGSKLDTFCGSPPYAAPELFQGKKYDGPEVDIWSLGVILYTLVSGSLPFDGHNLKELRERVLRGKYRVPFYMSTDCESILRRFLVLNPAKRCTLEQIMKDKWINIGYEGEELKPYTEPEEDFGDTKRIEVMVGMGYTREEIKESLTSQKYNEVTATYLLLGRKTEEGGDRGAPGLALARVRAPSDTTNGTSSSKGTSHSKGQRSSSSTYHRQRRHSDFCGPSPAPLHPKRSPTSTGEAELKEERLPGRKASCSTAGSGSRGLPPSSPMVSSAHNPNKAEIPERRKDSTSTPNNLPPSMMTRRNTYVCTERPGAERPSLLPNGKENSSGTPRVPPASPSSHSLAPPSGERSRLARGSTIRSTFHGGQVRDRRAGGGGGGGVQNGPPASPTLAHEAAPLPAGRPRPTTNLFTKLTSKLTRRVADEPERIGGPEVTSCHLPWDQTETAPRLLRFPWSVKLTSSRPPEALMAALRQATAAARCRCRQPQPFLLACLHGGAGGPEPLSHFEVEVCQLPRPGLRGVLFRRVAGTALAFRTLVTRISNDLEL
Description: Inhibition of MARK4 in human PC3 cell lysates at 10 uM using desthiobiotin-tagged ATP probe AX9989 followed by trypsinization by LC/MS analysis.

Experiment [2] addresses Serine/threonine-protein kinase MARK2 (Homo sapiens) (UniProt Q7KZI7). Nature of the experiment: Inhibition of MARK2 in human PC3 cell lysates at 10 uM using desthiobiotin-tagged ATP probe AX9989 followed by trypsinization by LC/MS analysis.
Experiment [3] addresses T2, Dual specificity mitogen-activated protein kinase kinase 4 (Homo sapiens) (UniProt P45985).
T2 sequence (whole entry): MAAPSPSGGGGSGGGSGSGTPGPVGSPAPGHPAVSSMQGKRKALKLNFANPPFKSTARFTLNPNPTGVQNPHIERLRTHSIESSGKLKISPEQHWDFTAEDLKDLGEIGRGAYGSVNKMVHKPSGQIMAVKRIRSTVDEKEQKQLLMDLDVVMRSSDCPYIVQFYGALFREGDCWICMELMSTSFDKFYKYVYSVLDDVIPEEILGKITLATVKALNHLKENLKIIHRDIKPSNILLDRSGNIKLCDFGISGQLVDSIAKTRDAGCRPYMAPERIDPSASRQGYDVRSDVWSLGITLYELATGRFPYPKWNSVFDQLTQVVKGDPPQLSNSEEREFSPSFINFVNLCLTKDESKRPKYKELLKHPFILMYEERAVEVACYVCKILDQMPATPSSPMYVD
Nature of the experiment: Inhibition of MAP2K4 in human PC3 cell lysates at 10 uM using desthiobiotin-tagged ATP probe AX9989 followed by trypsinization by LC/MS analysis.

Experiment [4] concerns the target Tyrosine-protein kinase Fyn (Homo sapiens) (UniProt P06241). Description: Inhibition of FYN in human PC3 cell lysates at 10 uM using desthiobiotin-tagged ATP probe AX9989 followed by trypsinization by LC/MS analysis.
The target of experiment [5] is Serine/threonine-protein kinase 16 (Homo sapiens) (UniProt O75716). Nature of the experiment: Inhibition of MPSK1 in human PC3 cell lysates at 10 uM using desthiobiotin-tagged ATP probe AX9989 followed by trypsinization by LC/MS analysis.
For experiment [6], the target named is SRSF protein kinase 2 (Homo sapiens) (UniProt P78362). Description: Inhibition of SRPK2 in human PC3 cell lysates at 10 uM using desthiobiotin-tagged ATP probe AX9989 followed by trypsinization by LC/MS analysis.
Experiment [7] addresses Interferon-induced, double-stranded RNA-activated protein kinase (Homo sapiens) (UniProt P19525). Nature of the experiment: Inhibition of PKR in human PC3 cell lysates at 10 uM using desthiobiotin-tagged ATP probe AX9989 followed by trypsinization by LC/MS analysis.
Experiment [8] deals with Ribosomal protein S6 kinase beta-1 (Homo sapiens) (UniProt P23443). Nature of the experiment: Inhibition of p70S6K in human PC3 cell lysates at 10 uM using desthiobiotin-tagged ATP probe AX9989 followed by trypsinization by LC/MS analysis.
Experiment [9] deals with T3, Serine/threonine-protein kinase Nek9 (Homo sapiens) (UniProt Q8TD19).
T3 sequence (whole entry): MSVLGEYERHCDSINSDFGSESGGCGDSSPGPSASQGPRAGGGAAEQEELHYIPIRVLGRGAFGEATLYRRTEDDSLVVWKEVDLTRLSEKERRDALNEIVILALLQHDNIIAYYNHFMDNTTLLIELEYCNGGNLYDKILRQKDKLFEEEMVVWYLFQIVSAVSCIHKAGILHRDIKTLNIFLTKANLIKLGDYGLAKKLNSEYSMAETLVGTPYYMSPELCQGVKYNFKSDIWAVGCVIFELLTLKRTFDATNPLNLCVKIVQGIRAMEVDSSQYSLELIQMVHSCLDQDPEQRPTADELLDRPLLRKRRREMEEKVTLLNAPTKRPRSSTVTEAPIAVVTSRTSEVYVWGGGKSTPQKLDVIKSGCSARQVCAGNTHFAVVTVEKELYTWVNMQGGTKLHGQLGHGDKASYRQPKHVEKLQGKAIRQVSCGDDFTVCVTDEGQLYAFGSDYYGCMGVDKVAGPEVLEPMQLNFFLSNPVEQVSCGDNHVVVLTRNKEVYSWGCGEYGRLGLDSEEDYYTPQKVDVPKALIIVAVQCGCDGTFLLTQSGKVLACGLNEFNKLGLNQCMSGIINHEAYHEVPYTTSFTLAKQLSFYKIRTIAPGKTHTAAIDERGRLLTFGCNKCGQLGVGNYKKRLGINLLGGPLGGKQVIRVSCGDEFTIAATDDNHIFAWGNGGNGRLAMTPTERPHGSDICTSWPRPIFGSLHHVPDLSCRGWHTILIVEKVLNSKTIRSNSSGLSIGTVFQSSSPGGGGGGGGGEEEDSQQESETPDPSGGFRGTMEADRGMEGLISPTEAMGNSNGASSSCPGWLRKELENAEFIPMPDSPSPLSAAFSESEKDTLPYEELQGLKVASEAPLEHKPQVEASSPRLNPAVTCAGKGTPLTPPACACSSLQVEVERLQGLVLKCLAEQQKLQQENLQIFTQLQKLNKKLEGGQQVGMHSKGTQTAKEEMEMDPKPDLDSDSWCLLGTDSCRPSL
Nature of the experiment: Inhibition of NEK9 in human PC3 cell lysates at 10 uM using desthiobiotin-tagged ATP probe AX9989 followed by trypsinization by LC/MS analysis.

Experiment [10] concerns the target Serine/threonine-protein kinase MRCK beta (Homo sapiens) (UniProt Q9Y5S2). Nature of the experiment: Inhibition of MRCKbeta in human PC3 cell lysates at 10 uM using desthiobiotin-tagged ATP probe AX9989 followed by trypsinization by LC/MS analysis.

Bounds are passed on as bounds.

Sequence of Serine/threonine-protein kinase MRCK beta (Homo sapiens) (Q9Y5S2 whole entry): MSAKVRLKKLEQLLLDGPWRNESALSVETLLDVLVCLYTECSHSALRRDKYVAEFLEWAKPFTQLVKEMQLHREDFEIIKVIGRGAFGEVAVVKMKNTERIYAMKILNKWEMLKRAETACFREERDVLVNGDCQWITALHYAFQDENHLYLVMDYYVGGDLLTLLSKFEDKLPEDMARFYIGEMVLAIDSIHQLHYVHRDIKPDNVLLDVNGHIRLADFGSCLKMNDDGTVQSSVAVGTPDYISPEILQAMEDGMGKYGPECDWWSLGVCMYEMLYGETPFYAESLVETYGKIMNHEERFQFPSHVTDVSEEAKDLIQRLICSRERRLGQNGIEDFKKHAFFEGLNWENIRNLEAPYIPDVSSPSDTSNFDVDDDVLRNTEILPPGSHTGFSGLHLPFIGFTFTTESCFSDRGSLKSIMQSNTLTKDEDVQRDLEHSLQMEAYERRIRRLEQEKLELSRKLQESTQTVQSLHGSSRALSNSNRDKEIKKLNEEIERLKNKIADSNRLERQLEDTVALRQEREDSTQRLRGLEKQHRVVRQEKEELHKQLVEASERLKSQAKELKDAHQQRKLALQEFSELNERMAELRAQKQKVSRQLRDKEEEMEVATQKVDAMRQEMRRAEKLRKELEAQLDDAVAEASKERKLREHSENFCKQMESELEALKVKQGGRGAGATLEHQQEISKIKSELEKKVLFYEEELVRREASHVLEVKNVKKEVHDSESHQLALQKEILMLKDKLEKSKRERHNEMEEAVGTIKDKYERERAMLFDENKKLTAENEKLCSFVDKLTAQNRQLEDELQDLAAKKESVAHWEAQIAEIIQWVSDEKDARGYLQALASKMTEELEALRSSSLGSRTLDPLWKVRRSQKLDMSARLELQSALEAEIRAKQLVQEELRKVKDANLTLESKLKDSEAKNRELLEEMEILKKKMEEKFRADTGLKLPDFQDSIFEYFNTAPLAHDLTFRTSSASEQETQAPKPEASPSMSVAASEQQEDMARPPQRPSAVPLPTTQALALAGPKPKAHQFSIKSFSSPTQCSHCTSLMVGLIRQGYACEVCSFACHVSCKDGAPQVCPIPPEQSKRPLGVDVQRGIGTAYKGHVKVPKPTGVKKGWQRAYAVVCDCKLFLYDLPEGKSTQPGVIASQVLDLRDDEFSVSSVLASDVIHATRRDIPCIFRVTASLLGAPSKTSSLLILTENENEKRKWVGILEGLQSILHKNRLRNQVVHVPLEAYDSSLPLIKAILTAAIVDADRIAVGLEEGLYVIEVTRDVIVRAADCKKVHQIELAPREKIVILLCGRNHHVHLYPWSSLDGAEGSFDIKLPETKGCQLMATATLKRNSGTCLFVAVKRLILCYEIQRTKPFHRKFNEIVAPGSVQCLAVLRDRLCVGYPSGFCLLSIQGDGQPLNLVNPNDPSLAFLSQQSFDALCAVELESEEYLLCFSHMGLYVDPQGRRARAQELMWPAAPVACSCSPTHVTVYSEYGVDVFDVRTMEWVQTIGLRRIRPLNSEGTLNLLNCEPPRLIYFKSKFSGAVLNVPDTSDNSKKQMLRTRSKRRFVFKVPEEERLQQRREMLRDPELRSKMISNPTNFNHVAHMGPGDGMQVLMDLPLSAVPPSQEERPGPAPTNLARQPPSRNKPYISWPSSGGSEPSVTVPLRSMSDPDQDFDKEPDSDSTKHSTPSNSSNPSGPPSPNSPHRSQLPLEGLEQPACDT
Sequence of Tyrosine-protein kinase Fyn (Homo sapiens) (P06241 2-537 limits assumed): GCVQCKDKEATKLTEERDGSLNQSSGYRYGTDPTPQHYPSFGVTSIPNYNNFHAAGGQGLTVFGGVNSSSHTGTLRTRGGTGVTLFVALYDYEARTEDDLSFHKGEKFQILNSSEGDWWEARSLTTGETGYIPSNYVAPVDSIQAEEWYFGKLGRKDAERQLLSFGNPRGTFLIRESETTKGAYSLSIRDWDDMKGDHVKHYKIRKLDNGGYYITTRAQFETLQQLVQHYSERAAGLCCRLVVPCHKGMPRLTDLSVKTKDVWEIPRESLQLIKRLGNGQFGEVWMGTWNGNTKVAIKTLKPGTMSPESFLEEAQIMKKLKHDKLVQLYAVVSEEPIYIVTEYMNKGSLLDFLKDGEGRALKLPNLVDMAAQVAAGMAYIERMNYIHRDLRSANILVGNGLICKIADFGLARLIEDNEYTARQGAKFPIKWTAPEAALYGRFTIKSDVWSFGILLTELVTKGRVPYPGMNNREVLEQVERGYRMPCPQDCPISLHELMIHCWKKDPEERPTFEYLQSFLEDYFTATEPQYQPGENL
Sequence of Ribosomal protein S6 kinase beta-1 (Homo sapiens) (P23443 whole entry, looked up): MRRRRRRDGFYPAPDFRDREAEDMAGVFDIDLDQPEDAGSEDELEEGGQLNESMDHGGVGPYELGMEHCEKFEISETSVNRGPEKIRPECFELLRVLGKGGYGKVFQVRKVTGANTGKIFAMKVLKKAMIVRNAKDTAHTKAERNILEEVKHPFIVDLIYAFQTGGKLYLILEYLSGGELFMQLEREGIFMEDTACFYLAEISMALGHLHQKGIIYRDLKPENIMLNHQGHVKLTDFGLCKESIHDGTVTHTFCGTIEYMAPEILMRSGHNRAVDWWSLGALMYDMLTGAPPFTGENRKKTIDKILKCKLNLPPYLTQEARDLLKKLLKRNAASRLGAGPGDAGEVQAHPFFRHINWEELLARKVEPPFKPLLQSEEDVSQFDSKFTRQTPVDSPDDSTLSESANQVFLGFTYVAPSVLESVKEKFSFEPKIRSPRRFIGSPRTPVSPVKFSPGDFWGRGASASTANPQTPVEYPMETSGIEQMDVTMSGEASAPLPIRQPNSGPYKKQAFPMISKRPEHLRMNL
Sequence of Interferon-induced, double-stranded RNA-activated protein kinase (Homo sapiens) (P19525 whole entry): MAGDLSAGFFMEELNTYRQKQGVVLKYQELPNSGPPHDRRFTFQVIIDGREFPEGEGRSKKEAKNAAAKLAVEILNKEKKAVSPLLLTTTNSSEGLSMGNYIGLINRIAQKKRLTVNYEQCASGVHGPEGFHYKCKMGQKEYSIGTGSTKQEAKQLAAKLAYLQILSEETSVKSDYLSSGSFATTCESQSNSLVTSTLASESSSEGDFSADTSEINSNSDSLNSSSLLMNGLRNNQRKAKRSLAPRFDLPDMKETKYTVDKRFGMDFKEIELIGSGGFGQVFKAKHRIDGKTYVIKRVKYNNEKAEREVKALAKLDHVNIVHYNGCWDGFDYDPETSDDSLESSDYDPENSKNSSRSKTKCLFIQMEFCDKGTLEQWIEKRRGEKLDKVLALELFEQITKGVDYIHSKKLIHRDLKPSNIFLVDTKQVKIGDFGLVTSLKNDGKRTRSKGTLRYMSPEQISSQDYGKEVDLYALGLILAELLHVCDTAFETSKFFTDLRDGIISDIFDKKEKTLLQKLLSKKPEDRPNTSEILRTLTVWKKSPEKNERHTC
Sequence of Serine/threonine-protein kinase 16 (Homo sapiens) (O75716 whole entry): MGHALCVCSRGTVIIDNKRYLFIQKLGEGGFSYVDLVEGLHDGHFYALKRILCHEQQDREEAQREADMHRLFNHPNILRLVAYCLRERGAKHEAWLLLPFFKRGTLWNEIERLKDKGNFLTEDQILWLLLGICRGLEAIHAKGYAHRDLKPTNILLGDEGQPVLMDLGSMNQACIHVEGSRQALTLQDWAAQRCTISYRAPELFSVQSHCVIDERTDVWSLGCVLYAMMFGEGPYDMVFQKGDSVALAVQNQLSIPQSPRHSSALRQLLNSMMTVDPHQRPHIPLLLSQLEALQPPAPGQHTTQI
Sequence of SRSF protein kinase 2 (Homo sapiens) (P78362 whole entry, looked up): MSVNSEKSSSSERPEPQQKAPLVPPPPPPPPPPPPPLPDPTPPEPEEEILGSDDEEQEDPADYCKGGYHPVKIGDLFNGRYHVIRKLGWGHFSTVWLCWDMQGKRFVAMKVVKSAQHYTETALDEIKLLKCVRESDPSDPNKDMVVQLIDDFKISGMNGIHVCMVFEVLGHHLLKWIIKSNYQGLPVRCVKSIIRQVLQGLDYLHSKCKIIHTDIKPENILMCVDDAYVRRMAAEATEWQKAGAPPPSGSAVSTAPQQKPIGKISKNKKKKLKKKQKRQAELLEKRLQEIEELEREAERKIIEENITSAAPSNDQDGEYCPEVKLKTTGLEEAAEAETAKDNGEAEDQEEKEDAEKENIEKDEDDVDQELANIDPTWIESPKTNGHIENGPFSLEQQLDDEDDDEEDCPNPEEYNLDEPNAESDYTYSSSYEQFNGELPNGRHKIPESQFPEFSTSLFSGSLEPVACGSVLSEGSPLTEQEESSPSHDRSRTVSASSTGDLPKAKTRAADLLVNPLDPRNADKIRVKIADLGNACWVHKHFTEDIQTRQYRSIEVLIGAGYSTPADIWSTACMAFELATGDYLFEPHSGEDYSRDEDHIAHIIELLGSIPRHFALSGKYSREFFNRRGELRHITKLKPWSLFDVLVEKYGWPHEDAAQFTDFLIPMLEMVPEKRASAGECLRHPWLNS

What is called inhibition is the drop in the measured response relative to a control, in per cent. Consider `O=C(NC1(c2ccc(F)cc2)CC1)c1ccc2nc(N[C@H]3CC[C@H](O)CC3)c3nccn3c2c1`, for which the inhibition in [1], in experiment [2], in [3], in experiment [4], in [5] and in [6] was under 35% each time. In addition, the inhibition in experiment [7], in experiment [8], in experiment [9] and in [10] was under 35% in each case.

`C[C@H](NC(=O)c1ccc2nc(N[C@H]3CC[C@H](O)CC3)c3nccn3c2c1)c1ccccc1`: the inhibition in [1], in [2], in experiment [3], in experiment [4], in [5] and in [6] was under 35% in each case. Also, the inhibition in experiment [7], in [8], in [9] and in experiment [10] was under 35% each time.

Regarding `O=C(O)c1ccc2nc(N[C@H]3CC[C@H](O)CC3)c3nccn3c2c1`, the inhibition is under 35% in experiment [1]; under 35% in [2]; under 35% in experiment [3]; under 35% in [4]; 48.9% in experiment [5]; under 35% in experiment [6]. Moreover, the inhibition in experiment [7], in experiment [8], in experiment [9] and in experiment [10] was under 35% in each case.

As to `O=C(NC1(c2ccccc2)CC1)c1ccc2nc(N[C@H]3CC[C@H](O)CC3)c3nccn3c2c1`, the inhibition in experiment [1], in [2], in [3], in [4], in [5] and in experiment [6] was under 35% in each case. In addition, the inhibition in experiment [7], in experiment [8], in experiment [9] and in experiment [10] was under 35% each time.

As to `O=C(N[C@H](CO)c1ccccc1)c1ccc2nc(N[C@H]3CC[C@H](O)CC3)c3nccn3c2c1`, the inhibition in experiment [1], in experiment [2], in experiment [3], in experiment [4], in experiment [5] and in experiment [6] was under 35% throughout. In addition, the inhibition in [7], in experiment [8], in experiment [9] and in [10] was under 35% throughout.

`C[C@@H](NC(=O)c1ccc2nc(N[C@H]3CC[C@H](O)CC3)c3nccn3c2c1)c1ccccc1`: the inhibition in experiment [1], in [2], in [3], in experiment [4], in [5] and in [6] was under 35% in each case. Moreover, the inhibition in experiment [7], in [8], in [9] and in experiment [10] was under 35% in each case.

`CC[C@@H](NC(=O)c1ccc2nc(N[C@H]3CC[C@H](O)CC3)c3nccn3c2c1)c1ccccc1`: the inhibition in experiment [1], in [2], in experiment [3], in [4], in [5] and in experiment [6] was under 35% throughout. For the same compound, the inhibition in [7], in [8], in experiment [9] and in experiment [10] was under 35% each time.

`CCC[C@@H](NC(=O)c1ccc2nc(N[C@H]3CC[C@H](O)CC3)c3nccn3c2c1)c1ccccc1`: the inhibition in experiment [1], in [2], in experiment [3], in [4], in experiment [5] and in experiment [6] was under 35% throughout. Also, the inhibition in experiment [7], in experiment [8], in experiment [9] and in [10] was under 35% each time.

For the compound `NC(=O)c1ccc2nc(N[C@H]3CC[C@H](O)CC3)c3nccn3c2c1`, the inhibition in experiment [1] was under 35%; in experiment [2], under 35%; in experiment [3], under 35%; in [4], under 35%; in experiment [5] it was 39.1%; in experiment [6] it was under 35%. In addition, the inhibition in experiment [7], in experiment [8], in experiment [9] and in experiment [10] was under 35% throughout.

`CC(C)(NC(=O)c1ccc2nc(N[C@H]3CC[C@H](O)CC3)c3nccn3c2c1)c1ccccc1`: the inhibition in experiment [1], in experiment [2], in [3], in [4], in experiment [5] and in experiment [6] was under 35% in each case. Besides, the inhibition in experiment [7], in experiment [8], in experiment [9] and in [10] was under 35% throughout.

As for `O=C(NC1(c2ccccc2)CCC1)c1ccc2nc(N[C@H]3CC[C@H](O)CC3)c3nccn3c2c1`, the inhibition in experiment [1], in experiment [2], in experiment [3], in experiment [4], in experiment [5] and in experiment [6] was under 35% in each case. In addition, the inhibition in experiment [7], in [8], in [9] and in [10] was under 35% throughout.

Values taken from ChEMBL document CHEMBL2417377, “Hit-to-lead optimization and kinase selectivity of imidazo[1,2-a]quinoxalin-4-amine derived JNK1 inhibitors” (Bioorg Med Chem Lett, 2013).
